Measured values taken from patent US8877748B2, “Heterocyclic fused anthraquinone derivatives, manufacturing method and pharmaceutical composition using thereof” (National Defense Medical Center, priority 2012, dated 2014).

How the values were obtained:
[1] = system: DU145; test: NCI one-dose screening, prostate cancer DU145; assay type: cell-based, human; conditions: 10 μM
[2] = system: MDA, -MB-435; test: NCI one-dose screening, breast cancer MDA, -MB-435; assay type: cell-based, human; conditions: 10 μM; listed under Melanoma
[3] = system: SF-268; test: NCI one-dose screening, CNS cancer SF-268; assay type: cell-based, human; conditions: 10 μM
[4] = system: IGROV1; test: NCI one-dose screening, ovarian cancer IGROV1; assay type: cell-based, human; conditions: 10 μM
[5] = system: NCI-H23; test: NCI one-dose screening, non-small cell lung cancer NCI-H23; assay type: cell-based, human; conditions: 10 μM
[6] = system: UACC-257; test: NCI one-dose screening, melanoma UACC-257; assay type: cell-based, human; conditions: 10 μM
[7] = system: M14; test: NCI one-dose screening, melanoma M14; assay type: cell-based, human; conditions: 10 μM
[8] = system: NCI-H522; test: NCI one-dose screening, non-small cell lung cancer NCI-H522; assay type: cell-based, human; conditions: 10 μM
[9] = system: EKVX; test: NCI one-dose screening, non-small cell lung cancer EKVX; assay type: cell-based, human; conditions: 10 μM
[10] = system: HT29; test: NCI one-dose screening, colon cancer HT29; assay type: cell-based, human; conditions: 10 μM
[11] = system: HOP-62; test: NCI one-dose screening, non-small cell lung cancer HOP-62; assay type: cell-based, human; conditions: 10 μM
[12] = system: U251; test: NCI one-dose screening, CNS cancer U251; assay type: cell-based, human; conditions: 10 μM
[13] = system: SNB-19; test: NCI one-dose screening, CNS cancer SNB-19; assay type: cell-based, human; conditions: 10 μM
[14] = system: HCT-15; test: NCI one-dose screening, colon cancer HCT-15; assay type: cell-based, human; conditions: 10 μM
[15] = system: T-47D; test: NCI one-dose screening, breast cancer T-47D; assay type: cell-based, human; conditions: 10 μM
[16] = system: TK-10; test: NCI one-dose screening, renal cancer TK-10; assay type: cell-based, human; conditions: 10 μM
[17] = system: PRMI-8226 cell line; test: NCI one-dose screening, leukemia PRMI-8226; assay type: cell-based, human; conditions: 10 μM
[18] = system: SR; test: NCI one-dose screening, leukemia SR; assay type: cell-based, human; conditions: 10 μM
[19] = system: PC-3 prostate cancer cell line; test: SRB assay cell viability, PC-3 prostate cancer cell line; assay type: cell-based, human; conditions: Homo sapiens, PC-3 prostate cancer cell line, Table II prints no unit, μM printed, read-out: SRB assay: 50% inhibition of cancer cell proliferation of sample concentration (IC50) of PC-3 prostate cancer cell line
[20] = system: OVCAR-8; test: NCI one-dose screening, ovarian cancer OVCAR-8; assay type: cell-based, human; conditions: 10 μM
[21] = system: RXF, 393; test: NCI one-dose screening, renal cancer RXF, 393; assay type: cell-based, human; conditions: 10 μM
[22] = system: SK-MEL-2; test: NCI one-dose screening, melanoma SK-MEL-2; assay type: cell-based, human; conditions: 10 μM
[23] = system: NCI-H460; test: NCI one-dose screening, non-small cell lung cancer NCI-H460; assay type: cell-based, human; conditions: 10 μM
[24] = system: NCI-H226; test: NCI one-dose screening, non-small cell lung cancer NCI-H226; assay type: cell-based, human; conditions: 10 μM
[25] = system: HOP-92; test: NCI one-dose screening, non-small cell lung cancer HOP-92; assay type: cell-based, human; conditions: 10 μM
[26] = system: BT-549; test: NCI one-dose screening, breast cancer BT-549; assay type: cell-based, human; conditions: 10 μM
[27] = system: HCT-116; test: NCI one-dose screening, colon cancer HCT-116; assay type: cell-based, human; conditions: 10 μM
[28] = system: MALME-3M; test: NCI one-dose screening, melanoma MALME-3M; assay type: cell-based, human; conditions: 10 μM
[29] = system: NCl/ADR-RES; test: NCI one-dose screening, breast cancer NCl/ADR-RES; assay type: cell-based, human; conditions: 10 μM; listed under Ovarian cancer
[30] = system: MDA-MB-468; test: NCI one-dose screening, breast cancer MDA-MB-468; assay type: cell-based, human; conditions: 10 μM
[31] = system: HCC-2998; test: NCI one-dose screening, colon cancer HCC-2998; assay type: cell-based, human; conditions: 10 μM
[32] = system: KM12; test: NCI one-dose screening, colon cancer KM12; assay type: cell-based, human; conditions: 10 μM
[33] = system: HL-60, TB; test: NCI one-dose screening, leukemia HL-60, TB; assay type: cell-based, human; conditions: 10 μM
[34] = system: A549/ATCC; test: NCI one-dose screening, non-small cell lung cancer A549/ATCC; assay type: cell-based, human; conditions: 10 μM
[35] = system: PC-3; test: NCI one-dose screening, prostate cancer PC-3; assay type: cell-based, human; conditions: 10 μM
[36] = system: MOLT-4; test: NCI one-dose screening, leukemia MOLT-4; assay type: cell-based, human; conditions: 10 μM
[37] = system: COLO 205; test: NCI one-dose screening, colon cancer COLO 205; assay type: cell-based, human; conditions: 10 μM
[38] = system: K562cell line; test: NCI one-dose screening, leukemia K562; assay type: cell-based, human; conditions: 10 μM
[39] = system: SK-MEL-5; test: NCI one-dose screening, melanoma SK-MEL-5; assay type: cell-based, human; conditions: 10 μM
[40] = system: SK-OV-3; test: NCI one-dose screening, ovarian cancer SK-OV-3; assay type: cell-based, human; conditions: 10 μM
[41] = system: LOX IMVI; test: NCI one-dose screening, melanoma LOX IMVI; assay type: cell-based, human; conditions: 10 μM
[42] = system: OVCAR-5; test: NCI one-dose screening, ovarian cancer OVCAR-5; assay type: cell-based, human; conditions: 10 μM
[43] = system: UACC-62; test: NCI one-dose screening, melanoma UACC-62; assay type: cell-based, human; conditions: 10 μM
[44] = system: MDA-MB-231/ATCC; test: NCI one-dose screening, breast cancer MDA-MB-231/ATCC; assay type: cell-based, human; conditions: 10 μM
[45] = system: 786-O; test: NCI one-dose screening, renal cancer 786-O; assay type: cell-based, human; conditions: 10 μM
[46] = system: SF-539; test: NCI one-dose screening, CNS cancer SF-539; assay type: cell-based, human; conditions: 10 μM
[47] = system: MCF7; test: NCI one-dose screening, breast cancer MCF7; assay type: cell-based, human; conditions: 10 μM
[48] = system: ACHN; test: NCI one-dose screening, renal cancer ACHN; assay type: cell-based, human; conditions: 10 μM
[49] = system: SNB-75; test: NCI one-dose screening, CNS cancer SNB-75; assay type: cell-based, human; conditions: 10 μM
[50] = system: human tumor cell lines; test: NCI one-dose screening, Mean / Delta / Range of growth percent over all tested cell lines; assay type: cell-based; conditions: 10 μM
[51] = system: SN12C; test: NCI one-dose screening, renal cancer SN12C; assay type: cell-based, human; conditions: 10 μM
[52] = system: HS 578-T; test: NCI one-dose screening, breast cancer HS 578-T; assay type: cell-based, human; conditions: 10 μM; Breast cancer
[53] = system: SK-MEL-28; test: NCI one-dose screening, melanoma SK-MEL-28; assay type: cell-based, human; conditions: 10 μM
[54] = NCI one-dose screening, renal cancer A489; assay type: cell-based, human; conditions: 10 μM
[55] = system: OVCAR-3; test: NCI one-dose screening, ovarian cancer OVCAR-3; assay type: cell-based, human; conditions: 10 μM
[56] = system: UO-31; test: NCI one-dose screening, renal cancer UO-31; assay type: cell-based, human; conditions: 10 μM

Question: For `COc1cccc(Sc2cc3c(c4nsnc24)C(=O)c2ccccc2C3=O)c1` [C46, 4-(3-methoxy-phenyl-thio)anthra[2,1-c] [1,2,5]thiadiazol-6,11-dione], which “Growth Percent DU145” value [1] is on record?
Answer: The value was 98.87%.

Question: And the “Growth Percent MDA-MB-435” value [2]?
Answer: Its value is 72.50%.

Question: What about the “Growth Percent SF-268” value [3] of the same compound?
Answer: The value was 89.75%.

Question: And the “Growth Percent IGROV1” value [4]?
Answer: The value was 99.91%.

Question: What about the “Growth Percent NCI-H23” value [5] of the same compound?
Answer: Its value is 76.42%.

Question: And the “Growth Percent UACC-257” value [6]?
Answer: Its value is 104/27.

Question: What about the “Growth Percent M14” value [7] of the same compound?
Answer: Its value is 94.23%.

Question: What about the “Growth Percent NCI-H522” value [8] of the same compound?
Answer: The value was 82.41%.

Question: And the “Growth Percent EKVX” value [9]?
Answer: The value was 104.94%.

Question: And the “Growth Percent HT29” value [10]?
Answer: Its value is 105.25%.

Question: And the “Growth Percent HOP-62” value [11]?
Answer: Its value is 61.81%.

Question: What about the “Growth Percent U251” value [12] of the same compound?
Answer: The value was 100.67%.

Question: What about the “Growth Percent SNB-19” value [13] of the same compound?
Answer: Its value is 105.92%.

Question: What about the “Growth Percent HCT-15” value [14] of the same compound?
Answer: Its value is 71.89%.

Question: What about the “Growth Percent T-47D” value [15] of the same compound?
Answer: Its value is 69.09%.

Question: What about the “Growth Percent TK-10” value [16] of the same compound?
Answer: Its value is 130.80%.

Question: What about the “Growth Percent RPMI-8226” value [17] of the same compound?
Answer: The value was 52.03%.

Question: And the “Growth Percent SR” value [18]?
Answer: The value was 36.14%.

Question: And the IC50 [19]?
Answer: The IC50 was over 15 µM.

Question: And the “Growth Percent OVCAR-8” value [20]?
Answer: The value was 97.32%.

Question: What about the “Growth Percent RXF 393” value [21] of the same compound?
Answer: The value was 124.15%.

Question: What about the “Growth Percent SK-MEL-2” value [22] of the same compound?
Answer: Its value is 82.62%.

Question: What about the “Growth Percent NCI-H460” value [23] of the same compound?
Answer: Its value is 100.27%.

Question: What about the “Growth Percent NCI-H226” value [24] of the same compound?
Answer: The value was 95.26%.

Question: And the “Growth Percent HOP-92” value [25]?
Answer: Its value is 100.52%.

Question: And the “Growth Percent BT-549” value [26]?
Answer: The value was 94.91%.

Question: And the “Growth Percent HCT-116” value [27]?
Answer: Its value is 85.66%.

Question: What about the “Growth Percent MALME-3M” value [28] of the same compound?
Answer: Its value is 113.06%.

Question: And the “Growth Percent NCI/ADR-RES” value [29]?
Answer: Its value is 92.67%.

Question: What about the “Growth Percent MDA-MB-468” value [30] of the same compound?
Answer: The value was 93.53%.

Question: And the “Growth Percent HCC-2998” value [31]?
Answer: Its value is 104.94%.

Question: What about the “Growth Percent KM12” value [32] of the same compound?
Answer: Its value is 97.06%.

Question: What about the “Growth Percent HL-60(TB)” value [33] of the same compound?
Answer: Its value is 84.53%.

Question: And the “Growth Percent A549/ATCC” value [34]?
Answer: The value was 109.52%.

Question: What about the “Growth Percent PC-3” value [35] of the same compound?
Answer: The value was 75.99%.

Question: What about the “Growth Percent MOLT-4” value [36] of the same compound?
Answer: Its value is 35.83%.

Question: What about the “Growth Percent COLO 205” value [37] of the same compound?
Answer: The value was 109.57%.

Question: And the “Growth Percent K562” value [38]?
Answer: Its value is 38.52%.

Question: And the “Growth Percent SK-MEL-5” value [39]?
Answer: Its value is 100.11%.

Question: What about the “Growth Percent SK-OV-3” value [40] of the same compound?
Answer: The value was 110.30%.

Question: What about the “Growth Percent LOX IMVI” value [41] of the same compound?
Answer: The value was 70.96%.

Question: What about the “Growth Percent OVCAR-5” value [42] of the same compound?
Answer: The value was 122.58%.

Question: What about the “Growth Percent UACC-62” value [43] of the same compound?
Answer: Its value is 87.72%.

Question: And the “Growth Percent MDA-MB-231/ATCC” value [44]?
Answer: Its value is 87.08%.

Question: What about the “Growth Percent 786-0” value [45] of the same compound?
Answer: Its value is 102.97%.

Question: And the “Growth Percent SF-539” value [46]?
Answer: The value was 107.05%.

Question: And the “Growth Percent MCF7” value [47]?
Answer: Its value is 72.77%.

Question: What about the “Growth Percent ACHN” value [48] of the same compound?
Answer: Its value is 98.70%.

Question: And the “Growth Percent SNB-75” value [49]?
Answer: The value was 81.80%.

Question: What about the “Growth Percent Delta” value ([50]; delta over all cell lines) of the same compound?
Answer: Its value is 55.47%.

Question: What about the “Growth Percent Mean” value ([50]; mean over all cell lines) of the same compound?
Answer: The value was 91.30%.

Question: What about the “Growth Percent Range” value ([50]; range over all cell lines) of the same compound?
Answer: Its value is 94.97%.

Question: What about the “Growth Percent SN12C” value [51] of the same compound?
Answer: The value was 95.93%.

Question: What about the “Growth Percent HS 578T” value [52] of the same compound?
Answer: The value was 93.84%.

Question: What about the “Growth Percent SK-MEL-28” value [53] of the same compound?
Answer: Its value is 101.77%.

Question: And the “Growth Percent A498” value [54]?
Answer: The value was 83.74%.

Question: And the “Growth Percent OVCAR-3” value [55]?
Answer: The value was 85.83%.

Question: And the “Growth Percent UO-31” value [56]?
Answer: The value was 75.49%.
